Residues, ends and D or L forms follow the SMILES beside them.
Assay: Synthetic musclin peptide plasma elimination half-life and volume of distribution (NMR of plasma after jugular vein injection)
Assay type: in vivo, mouse
Protocol: The musclin [^13C,^15N-A26-V27]-labeled peptide sequence used was as follows: […], corresponding to amino acids 80–112; GenBank accession no. AAS87598.1 (Bio-synthesis, Inc. Lewisville, TX, USA). A peptide was synthesized with 98% purity, counter-ion exchange (TFA to Cl), and pH adjustment (Bio-synthesis, Inc. Lewisville, TX, USA).
For infusion, 1.7 mg of the chemically synthesized [^13C,^15N-A26-V27]-labeled musclin peptide was dissolved in 300 µL of PBS. This musclin solution was injected into the jugular vein. A 100 µL blood sample was then drawn from the carotid artery at 1, 3, 5, 7, 10, and 15 min after the peptide infusion. Blood was mixed with 5 µL of 10% NaEDTA and 1 µL of peptidase inhibitor cocktail (Sigma, St. Louis, MI, USA) and kept on ice, then centrifuged at 4 °C for 45 min at 14,000 rpm. Plasma was removed and stored at −80 °C for NMR studies.
All NMR spectra were acquired at 5 °C on a Bruker Avance II 800 MHz NMR spectrometer equipped with a TCI cryoprobe. 100 µL of plasma (see above) was added 150 µL NMR buffer containing 50 mM sodium phosphate, pH 7.1 with a final volume of 250 µL in 8.5% D2O/91.5% H2O. This sample was then transferred to a Shigemi NMR tube for NMR studies. One-dimensional (1D) ^1H, two-dimensional (2D) ^15N/^1H-heteronuclear single-quantum correlation (HSQC), 2D ^13C/^1H-HSQC with constant time experiment (HSQC-CT), and 2D ^15N/^1H-slice of the three-dimensional (3D) HNCO experiment were acquired for each blood sample drawn at different times after peptide infusion. The collected NMR data were processed using NMRPipe and analyzed using NMRView. The musclin peptide concentration present in these blood samples was calibrated by using a known amount of chemically synthesized [^13C,^15N-A26-V27]-labeled musclin peptide. The peak intensity of these acquired NMR spectra was measured and fitted to the equation for half-life in exponential decay using GraphPad Prism (GraphPad Software version 9.4.1).

Cl, clearance = Ke × Vd (calculated for a mouse of 27 g): 1.71 mL/min
C0 (in vivo, iv, mouse, 1.7 mg i.v. (jugular vein), NMR calibrated with known amount of labeled peptide, read-out: initial plasma concentration): 36 µM
half-life (in vivo, iv, mouse, 1.7 mg in 300 µL PBS injected into jugular vein, carotid artery blood at 1, 3, 5, 7, 10, 15 min, plasma NMR at 5 °C, HNCO (2D) peak intensities fitted to exponential decay, read-out: plasma elimination half-life (t ½)): 4.6 min
volume of distribution (Vd) per g body weight (mouse of 31 g, Vd = administered dose/initial concentration, 1.7 mg i.v. (jugular vein)): 0.419 ml/g of BW
Ke, elimination rate = 0.693/T1/2 (mouse, i.v. (jugular vein)): 0.151 min⁻¹
Vd (mouse, in vivo, iv, for mice of 31 g, 1.7 mg/0.131 mg/mL): 0.013 L
SMILES: CC(C)C[C@H](NC(=O)[C@H](CCCNC(=N)N)NC(=O)[C@H](CC(=O)O)NC(=O)[C@H](CC(C)C)NC(=O)[C@@H]1CCCN1C(=O)[C@H](CO)NC(=O)CNC(=O)[C@H](Cc1ccccc1)NC(=O)CNC(=O)[C@H](CO)NC(=O)[C@H](Cc1ccccc1)NC(=O)[C@@H](N)CO)C(=O)N[C@@H](CO)C(=O)N[C@@H](C)C(=O)NCC(=O)N[C@@H](CO)C(=O)N[C@H](C(=O)N[C@@H](CCC(=O)O)C(=O)N[C@@H](Cc1c[nH]cn1)C(=O)N[C@@H](CCCNC(=N)N)C(=O)NCC(=O)N[C@@H](CCCCN)C(=O)N[C@@H](CCC(N)=O)C(=O)N[C@@H](CCCNC(=N)N)C(=O)N[C@@H](CCCCN)C(=O)N[C@@H](C)C(=O)N[C@H](C(=O)N[C@@H](CC(=O)O)C(=O)N[C@@H](Cc1c[nH]cn1)C(=O)N[C@@H](CO)C(=O)N[C@@H](CCCCN)C(=O)N[C@@H](CCCCN)C(=O)N[C@@H](CCCNC(=N)N)C(=O)O)C(C)C)C(C)C (H-SFSGFGSPLDRLSAGSVEHRGKQRKAVDHSKKR-OH; N-terminus and C-terminus assumed)

— publication PMC10095193, “Myokine Musclin Is Critical for Exercise-Induced Cardiac Conditioning” (International Journal of Molecular Sciences, 2023)
